In series [1] the target is T1, rat brain FAAH (Rattus norvegicus, UniProt P97612).
T1 construct: FAAH activity was quantified by measuring hydrolysis of tritium labelled AEA in rat brain homogenates; from tissue; host or cells: rat brain (minus cerebella), Wistar or Sprague-Dawley, washed membrane pellets
T1 sequence (P97612 1-579): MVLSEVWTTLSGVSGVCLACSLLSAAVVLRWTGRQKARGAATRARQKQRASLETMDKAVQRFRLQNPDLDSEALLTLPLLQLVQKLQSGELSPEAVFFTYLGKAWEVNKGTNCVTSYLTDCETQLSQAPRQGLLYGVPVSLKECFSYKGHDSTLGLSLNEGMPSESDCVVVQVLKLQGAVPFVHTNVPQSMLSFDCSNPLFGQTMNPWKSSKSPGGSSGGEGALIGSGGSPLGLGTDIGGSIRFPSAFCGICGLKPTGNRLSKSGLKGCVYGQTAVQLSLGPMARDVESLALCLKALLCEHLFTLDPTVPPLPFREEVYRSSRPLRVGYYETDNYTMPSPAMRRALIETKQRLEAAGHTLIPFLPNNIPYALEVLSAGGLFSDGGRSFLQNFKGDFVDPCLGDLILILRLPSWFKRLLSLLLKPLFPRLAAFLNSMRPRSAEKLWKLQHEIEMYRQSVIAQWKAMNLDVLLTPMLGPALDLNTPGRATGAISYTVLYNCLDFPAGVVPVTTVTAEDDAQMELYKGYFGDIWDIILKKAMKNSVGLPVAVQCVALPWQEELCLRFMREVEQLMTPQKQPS
As to the kind of experiment: FAAH hydrolysis of [3H]AEA in rat brain homogenates. The class given is biochemical. To be noted: 0.5 µM AEA. How it is done:
Brains (minus cerebella) from adult Wistar or Sprague-Dawley stored at −80°C were thawed, weighed and homogenized in cold buffer (20 mM HEPES, 1 mM MgCl2 pH 7.0). Homogenates were centrifuged at 35,000 g at 4°C for 20 min and the pellet was resuspended in homogenization buffer (repeated twice) before being incubated at 37°C for 15 min to degrade any endogenous substrate that might interfere with the FAAH assay. Following centrifugation, the pellets were resuspended in cold buffer (50 mM Tris-HCl, 1 mM EDTA, 3 mM MgCl2, pH 7.4). The protein concentration of each homogenates was determined according to the Bradford assay after which the samples were frozen in aliquots at −80°C until used for FAAH assay. Ethical permission for the animal experiments was obtained from the local animal research ethical committee (Umeå Ethical Committee for Animal Research, Umeå, Sweden).
The assay was performed according to Boldrup et al.. Homogenates (1 µg protein per assay) diluted in 10 mM Tris-HCl, 1 mM EDTA, pH 7.4 or pH 5.1 were mixed with test substance dissolved in DMSO (total concentration in assay 5%) at an ambient temperature of 4°C. Reactions were initiated by addition of AEA-[^3H] (assay concentration 0.5 µM) in 10 mM Tris-HCl, 1 mM EDTA, pH 7.4 containing 10 mg ml^−1 fatty acid-free bovine serum and incubation at 37°C which was allowed to proceed for 10 min. […] Blank samples contained buffer instead of homogenate and DMSO (5%). The assay volume of each sample was 200 µl. The pH values given in the text were determined by measurement at 37°C of scaled-up mixtures of homogenization and assay buffers. The reaction was terminated by addition of 400 µl activated charcoal (80 µl activated charcoal +320 µl 0.5 M HCl) and placement of samples on ice. Samples were kept in room temperature for 45–60 min before being centrifuged at 2500 rpm for 10 min. Aliquots (200 µl) of the supernatant was analyzed for tritium content by liquid scintillation with quench correction.
FAAH inhibition was calculated using log(inhibitor) vs. response with variable slope (four parameters) algorithm in the GraphPad Prism computer program (GraphPad Software Inc., San Diego, CA. USA). […] The two curves were compared by Akaike’s informative criteria and the best fit was chosen. Initial COX activities were calculated as the change in oxygen tension between 10 and 30 seconds after addition of enzyme.

The conditions of series [2]: cited from earlier work.
[3] abbreviates: pH 6.0, read-out: IC50, inhibition of [3H]AEA hydrolysis (converted).
[4] abbreviates: pH 6.0, read-out: pI50, inhibition of [3H]AEA hydrolysis (converted).
Where [5] appears, read: pH 7.3, read-out: IC50, inhibition of [3H]AEA hydrolysis (converted).
Setting [6] is: pH 7.3, read-out: pI50, inhibition of [3H]AEA hydrolysis (converted).

Read-outs that look alike come from different tables or passages of the source.

Here are results for 3 compounds from publication PMC4111603 (PLoS ONE, 2014).

As a reminder, the inhibition is the change of the read-out against control, counted positive when it falls. For `CC(C(=O)O)c1ccc(CC(C)(C)O)cc1` (stereo not shown) [2′-OH-Ibuprofen, 2-[4-(2-hydroxy-2-methylpropyl)phenyl]propionic acid], the IC50 in series [1] (setting [3]) and in series [1] (setting [4]) was 380 µM throughout. Further, the inhibition at 1000 µM in series [1] (read-out: % inhibition of [3H]AEA hydrolysis @ 1000 µM, pH 7.3, 1000 µM compound) is 15 ± 7%. Moreover, the urinary recovery in series [2] (24 h after administration of 400 mg of ibuprofen) was 23%.

Regarding `CC(CO)Cc1ccc(C(C)C(=O)O)cc1` (stereo not shown) [3′-OH-Ibuprofen, 2-[4-(3-hydroxy-2-methylpropyl)phenyl]propionic acid], the IC50 in series [1] (setting [3]) was 200 µM; in series [1] (setting [4]), 200 µM; in series [1] (setting [5]), 990 µM; in series [1] (setting [6]), 977 µM.

With `CC(C(=O)O)c1ccc(-c2ccc(O)cc2)c(F)c1` (stereo not shown) [4′-OH-Flurbiprofen], the IC50 in series [1] (setting [3]) was 84 µM; in series [1] (setting [4]), 85.1 µM; in series [1] (setting [5]) it was 310 µM; in series [1] (setting [6]) it was 316 µM. In series [2] (flurbiprofen 50 mg a day for 10 consecutive days), the “share of the dose recovered in the urine” value is 43%.
